Reference: PMC8326056 (Journal of Animal Science, 2021)
Structures can show the parent of a compound that is named as a salt.

Columns and labels:
Assay type in all cases: cell-based, bovine (Angus cross steers)
[1] = system: bovine s.c. adipose tissue; test: Lipolysis: NEFA release, s.c. adipose tissue explants; details: s.c. adipose tissue; for Effect on NEFA release (in words): 30 min
[2] = system: bovine s.c. adipose tissue; test: cAMP in s.c. adipose tissue explants (Cyclic AMP XP Assay Kit); details: for Effect on cAMP (in words): ligand alone, 30 min
Protocol: (§1) Fresh s.c. adipose tissue was cut into small pieces (50 to 100 mg, actual weight recorded) and i.m. adipose tissue was dissected from the LM as described previously ([Smith and Crouse, 1984]; [Miller et al., 1988]) and weighed. The s.c. and i.m. adipose samples were incubated according to 3 different sets of experimental conditions. Experiment 1: Small pieces of s.c. and i.m. adipose tissues (50 to 100 mg; 1 to 2 mm thick; [Smith and Prior, 1981]) were preincubated in 6-well tissue culture plates in a CO2/O2 incubator (NuAire model 4750 CO2 incubator, Plymouth, MN) for 30 min at 37 °C, 5% CO2 in KHB plus 5 mM glucose, 10 mM HEPES, and 0.5 mM theophylline. […] Experiment 2: The s.c. and i.m. adipose samples were preincubated in KHB plus 5 mM glucose, 10 mM HEPES, and 0.5 mM theophylline in the presence or absence of either 10 µM L-748,337 (β 3-AR antagonist) or 50 µM PRO (β-AR pan-antagonist). […] After the 30 min preincubation, either DOB (β 1-AA) or SAL (β 2-AA) was added to the culture plate wells in a concentration-dependent manner (10^–9 to 10^–4 M) for an additional 30 min. For all experiments, there were at least 3 replicate wells per treatment condition. After a total of 1-hr incubation, the adipose samples were homogenized in 1 mL cell lysis buffer (Cell Signaling Technology, Danvers, MA) with 1 mM phenymethylsulfony fluoride, and centrifuged at 14,000 × g for 30 min to remove tissue debris. The supernatant fractions were stored at −80 °C until subsequent analyses were performed.
(§2) The concentration of cAMP was determined based on the principle of competitive binding using the Cyclic AMP XP Assay Kit according to the manufacturer’s instructions. Cytosolic extracts from the adipose explants were co-incubated at room temperature for 3 hr in 96-well plates with the HRP-linked cAMP substrate coated onto an immobilized rabbit monoclonal cAMP antibody using a horizontal orbital plate shaker. After the reaction, color development was measured at 450 nm using an Epoch microplate reader (Biotek Instruments, Winooski, VT). All samples were analyzed in duplicate. A standard curve and cAMP concentrations were calculated using GrapPad Prism 6.04 software (GraphPad Software Inc., San Diego, CA).

[3] = system: bovine i.m. adipose tissue; test: cAMP in i.m. adipose tissue explants (Cyclic AMP XP Assay Kit); details: i.m. adipose tissue; for Effect on cAMP (in words): ligand alone, 30 min
Protocol: as §1, §2

[4] = system: bovine i.m. adipose tissue; test: Lipolysis: NEFA release, i.m. adipose tissue explants; details: i.m. adipose tissue, 30 min
[5] = system: bovine i.m. adipose tissue; test: Lipolysis: glycerol release, i.m. adipose tissue explants; details: i.m. adipose tissue, 30 min
[6] = system: bovine s.c. adipose tissue; test: Lipolysis: glycerol release, s.c. adipose tissue explants; details: s.c. adipose tissue
[7] = Bos taurus, sc, 0.5 h, 30 min at 37 °C, n = 5

| SMILES | Effect on NEFA release (in words) [1] | Effect on cAMP (in words) ([2]; s.c. adipose tissue) | Adipose tissue lipolytic sensitivity (−logEC50) to β-AR ligands, s.c. ([2]; s.c., cAMP readout, mean ± SEM, n = 12 cattle, combinations: preincubation with 1 µM LUB ± 10 µM L-748,337) | cAMP concentration compared with explants treated with the same concentrations of LUB ([3]; 10^–6 and 10^–5 M, P < 0.05) | Effect on NEFA release (in words) [4] | Effect on cAMP (in words) [3] | EC50 [1, 7] | Effect on glycerol release (in words) [5] | EC50 [6, 7] | Effect on glycerol release (in words) ([6]; 30 min) | EC50 ([2]; Bos taurus, sc, 0.5 h, s.c. adipose tissue, 30 min at 37 °C, n = 5, read-out: EC50, cAMP accumulation) | Concentration at which the cAMP response plateaus ([2]; s.c. adipose tissue) |
| --- | --- | --- | --- | --- | --- | --- | --- | --- | --- | --- | --- | --- |
| C[C@H](Cc1ccc(OCC(=O)O)cc1)NC[C@H](O)c1cccc(Cl)c1 [BRL-37344] | Neither BRL-37344 nor LUB influenced cAMP or NEFA concentrations | Neither BRL-37344 nor LUB influenced cAMP or NEFA concentrations | 7.00 ± 3.27 | significantly less | not influenced |  |  |  |  |  |  |  |
| CC(CCc1ccc(O)cc1)NCCc1ccc(O)c(O)c1 (stereo not shown) [DOB, dobutamine hydrochloride] |  | increased cAMP production in s.c. adipose tissue in a dose-dependent manner |  |  |  | without effect in i.m. adipose tissue |  |  |  |  |  |  |
| CC(C)NCC(O)c1ccc(O)c(O)c1 (stereo not shown) [ISO, isoproterenol hydrochloride] | increased NEFA release in a dose-dependent manner | increased cAMP accumulation |  |  | failed to elicit a similar response curve | not dose-dependent | 180 nM | had no effect | 5.1 µM | increased glycerol release in a concentration-dependent manner | 220 nM | 10^–6 M |
| CC(C)(C)NCC(O)c1ccc(O)c(CO)c1 (stereo not shown) [SAL, salbutamol sulfate] |  | increased cAMP production in s.c. adipose tissue in a dose-dependent manner |  |  |  | without effect in i.m. adipose tissue |  |  |  |  |  |  |
